In the experiment the test system is Henosepilachna vigintioctopunctata. Description: Antifeedant activity against fourth-instar larvae of Henosepilachna vigintioctopunctata on Solanum nigrum leaves at 1 % relative to control. In kind it is functional.

Each structure is given as a SMILES string.

Compound `CC1=CC[C@H]2C(C)(C)C(=O)CC[C@]2(C)[C@H]1CC[C@H]1C(C)=CC[C@H]2C(C)(C)C(=O)CC[C@]12C` displayed an AFI of 85%.
With `COC(=O)[C@@H]1O[C@]23O[C@H]4CC[C@]5(C)C(=CC(=O)O[C@H]5c5ccoc5)[C@H]4C[C@]2(O)CC(C)(C)[C@H]1[C@@H]3C` [KOKOSANOLIDE C], the AFI was determined as 0%.
The compound `C=C1CC[C@H]2C(C)(C)C(=O)CC[C@]2(C)[C@H]1CC[C@H]1C(C)=CC[C@H]2C(C)(C)C(=O)CC[C@]12C` returned an AFI of 56%.
In turn, `CC1=CC[C@H]2C(C)(C)C(=O)CC[C@]2(C)[C@H]1CC[C@H]1C(C)(O)CC[C@H]2C(C)(C)C(=O)CC[C@]12C` (stereo not given in full) [Kokosanolide B] showed an AFI of 99%.
As to `COC(=O)[C@@H]1O[C@]23O[C@H]4CC[C@]5(C)C(=CC(=O)O[C@H]5c5ccoc5)[C@H]4C[C@]2(O)C(=O)C(C)(C)[C@H]1[C@@H]3C` [KOKOSANOLIDE A], the AFI came out at 78%.

Source of the values: ChEMBL document CHEMBL3045295, “Antifeedant triterpenoids from the seeds and bark of Lansium domesticum cv Kokossan (Meliaceae)” (2011).
